# Assays:
# [1] = tested on: neonatal mouse calvaria; assay: Neonatal mouse calvaria assay (in vitro bone formation); assay type: cell-based; set-up: Osteoblast Number, % increase over vehicle control / New Bone Area, % increase over vehicle control: concentration or dose not given beside the values
# Description: Briefly, four days after birth, the front and parietal bones of ICR Swiss white mouse pups are removed by microdissection and split along the sagittal suture.
# Three μm sections of the calvaria are prepared. Representative sections are selected for histomorphometric assessment of bone formation or bone resorption. Bone changes are measured on sections cut 200 μm apart. Osteoblasts and osteoclasts are identified by their distinctive morphology.
# Selected compounds and appropriate controls were assayed in vitro (ex vivo) for bone formation activity (described above in “Neonatal Mouse Calvaria Assay (in vitro)”). Histomorphometrical assessments of ex vivo calvaria were carried out using an OsteoMetrics bone morphometry measurement program, according to the manufacturer's instructions. Measurements were determined using either a 10- or 20-fold objective with a standard point counting eyepiece graticule.
# New bone formation was determined (using a 10× objective) by measuring the new bone area formed in one field in 3 representative sections of each bone (4 bones per group). Each measurement was carried out ½ field distance from the end of the suture. Both total bone and old bone area were measured. Data were expressed as new bone area in mm^2.
# Osteoblast numbers were determined by point counting. The number of osteoblast cells lining the bone surface on both sides of the bone were counted in one field using a 20× objective. Data were expressed as osteoblast numbers/mm of bone surface.
# The results were calculated as new bone area in mm^2×10^−3, as above.
# [2] = tested on: BMP-2 promoter; assay: ABA assay: BMP-2 promoter-luciferase reporter in 2T3-BMP-2-LUC osteoblast cells; assay type: cell-based, mouse; settings: for % 59-0008 Response / Fold increase over negative control: Experiment 1
# Description: These transformed cells are then evaluated for the production of the reporter gene product; compounds that activate the BMP promoter will drive production of the reporter protein, which can be readily assayed.
# The cells were cultured using α-MEM, 10% FCS with 1% penicillin/streptomycin and 1% glutamine (“plating medium”), and were split 1:5 once per week. For the assay, the cells were resuspended in a plating medium containing 4% FCS, plated in microtiter plates at a concentration of 5×10^3 cells (in 50 μl)/well, and incubated for 24 hours at 37° C. in 5% CO2. To initiate the assay, 50 μl of the test compound or the control in DMSO was added at 2× concentration to each well, so that the final volume was 100 μl. The final serum concentration was 2% FCS, and the final DMSO concentration was 1%.
# The treated cells were incubated for 24 hours at 37° C. and 5% CO2. The medium was then removed, and the cells were rinsed three times with PBS. After removal of excess PBS, 25 μl of 1× cell culture lysing reagent (Promega #E153A) was added to each well and incubated for at least ten minutes. Optionally, the plates/samples could be frozen at this point. To each well was added 50 μl of luciferase substrate (Promega #E152A; 10 ml Promega luciferase assay buffer per 7 mg Promega luciferase assay substrate). Luminescence was measured on an automated 96-well luminometer, and was expressed as either picograms of luciferase activity per well or as picograms of luciferase activity per microgram of protein.
# Alternatively, the reactivity of a compound to be tested can be compared directly to a negative control containing no compound.
# [3] = tested on: ICR Swiss white mice calvaria; assay: In vivo murine calvarial bone growth assay; set-up: species or system mouse; settings: 12.5 μg/kg/day
# Description: Male ICR Swiss white mice, aged 4-6 weeks and weighing 13-26 gm, are employed, using 4-5 mice per group. The calvarial bone growth assay is performed as described in PCT application WO 95/24211, incorporated by reference. Briefly, the test compound or appropriate control vehicle is injected into the subcutaneous tissue over the right calvaria of normal mice. Typically, the control vehicle is the vehicle in which the compound was solubilized, and is PBS containing 5% DMSO or is PBS containing Tween (2 μl/10 ml). The animals are sacrificed on day 14 and bone growth measured by histomorphometry. Bone samples for quantitation are cleaned from adjacent tissues and fixed in 10% buffered formalin for 24-48 hours, decalcified in 14% EDTA for 1-3 weeks, processed through graded alcohols; and embedded in paraffin wax. Three to five μm sections of the calvaria are prepared, and representative sections are selected for histomorphometric assessment of the effects on bone formation and bone resorption. Sections are measured by using a camera lucida attachment to trace directly the microscopic image onto a digitizing plate. Bone changes are measured on sections cut 200 μm apart, over 4 adjacent 1×1 mm fields on both the injected and noninjected sides of the calvaria. New bone is identified by its characteristic woven structure, and osteoclasts and osteoblasts are identified by their distinctive morphology. Histomorphometry software (OsteoMeasure, Osteometrix, Inc., Atlanta) is used to process digitizer input to determine cell counts and measure areas or perimeters.
# The results are reported as a measurement of total bone area (and % increase in area over vehicle control), as shown below.
compound,measurement,setting,value
"NCCC(O)(P(=O)(O)O)P(=O)(O)O [Pamidronate, pamidronate]",New Bone Area,"[1]; other bisphosphonates, 10 μM",6.0 ± 0.5 mm^2 × 10^−3
same,New Bone Area,"[1]; other bisphosphonates, 100 μM",5.8 ± 0.6 mm^2 × 10^−3
same,New Bone Area,"[1]; other bisphosphonates, 1000 μM",5.2 ± 0.6 mm^2 × 10^−3
same,effect on new bone area,[1]; under these conditions (0.1-1000 μM),negligible effects
"CC[C@H](C)C(=O)O[C@H]1C[C@H](O)C=C2C=C[C@H](C)[C@H](CC[C@@H](O)C[C@@H](O)CC(=O)O)[C@H]21 [Pravastatin, pravastatin]",% 59-0008 Response,[2]; 0.195312 μg/ml,−4.390%
same,Fold increase over negative control,[2]; 0.195312 μg/ml,0.807 fold
same,% 59-0008 Response,[2]; 0.390625 μg/ml,−1.290%
same,Fold increase over negative control,[2]; 0.390625 μg/ml,0.943 fold
same,% 59-0008 Response,[2]; 0.78125 μg/ml,−1.980%
same,Fold increase over negative control,[2]; 0.78125 μg/ml,0.913 fold
same,% 59-0008 Response,[2]; 1.5625 μg/ml,−1.120%
same,Fold increase over negative control,[2]; 1.5625 μg/ml,0.951 fold
same,% 59-0008 Response,[2]; 3.125 μg/ml,0.380%
same,Fold increase over negative control,[2]; 3.125 μg/ml,1.017 fold
same,% 59-0008 Response,[2]; 6.25 μg/ml,0.920%
same,Fold increase over negative control,[2]; 6.25 μg/ml,1.040 fold
same,% 59-0008 Response,[2]; 12.5 μg/ml,1.110%
same,Fold increase over negative control,[2]; 12.5 μg/ml,1.049 fold
same,% 59-0008 Response,[2]; 25 μg/ml,3.520%
same,Fold increase over negative control,[2]; 25 μg/ml,1.155 fold
same,% 59-0008 Response,[2]; 50 μg/ml,5.000%
same,Fold increase over negative control,[2]; 50 μg/ml,1.220 fold
same,% 59-0008 Response,[2]; 100 μg/ml,7.620%
same,Fold increase over negative control,[2]; 100 μg/ml,1.335 fold
same,% 59-0008 Response,[2]; 200 μg/ml,11.670%
same,Fold increase over negative control,[2]; 200 μg/ml,1.513 fold
"O=P(O)(O)C(O)(Cc1cccnc1)P(=O)(O)O [Risedronate, risedronate]",effect on new bone area,[1]; 10 μM and 100 μM,significant increases in new bone area
same,New Bone Area,"[1]; other bisphosphonates, 10 μM",8.5 ± 0.5 mm^2 × 10^−3
same,New Bone Area,"[1]; other bisphosphonates, 100 μM",7.3 ± 1.9 mm^2 × 10^−3
same,New Bone Area,"[1]; other bisphosphonates, 1000 μM",Toxic
CC(O)(CCO)CC(=O)O (stereo not drawn) [mevalonate],effect of mevalonic acid on primary screen activity of 59-0008,[2],no effect
same,effect of added mevalonate on the activity of mevastatin in the ABA assay,"[2]; mevalonate 25-800 μM, mevastatin 100, 25, or 6.25 μM",inhibits the activity of mevastatin
"bFGF: control factor, ""gold standard"" agent for bone growth",% increase in total bone area over vehicle control,[3],45%
same,Total Bone Area,[3],242 μm^2
same,New Bone Area,"[1]; Experiment 1, 3 days",5.7 mm^2 × 10^−3
same,"New Bone Area, % increase over vehicle control","[1]; Experiment 1, 3 days",19%
same,Osteoblast Number,"[1]; Experiment 1, 3 days",179.25 Obs/field
same,"Osteoblast Number, % increase over vehicle control","[1]; Experiment 1, 3 days",84%
same,New Bone Area,"[1]; Experiment 1, 7 days",18.1 mm^2 × 10^−3
same,"New Bone Area, % increase over vehicle control","[1]; Experiment 1, 7 days",132%
same,Osteoblast Number,"[1]; Experiment 1, 7 days",168.7 Obs/field
same,"Osteoblast Number, % increase over vehicle control","[1]; Experiment 1, 7 days",82%
